Laboratory results: patent US20060106099A1, “Novel inhibitors of ubiquitin isopeptidases” (priority 2002, published 2006)
Where two headings read alike, the source gives them in different places.

Key:
ubiquitin isopeptidases [1] = assay: Ubiquitin isopeptidase activity, Ub-PEST substrate, lysates of treated RKO and HCT 116 cells; assay type: cell-based, human; conditions: cells treated 6, 20 or 60 μM, 12 h
Protocol: A) Inhibition of isopeptidase proteolysis of Ub-PEST substrate. RKO and HCT 116 cells were treated with DMSO vehicle, 6, 20, or 60 μM of Δ12-PGJ2, DBA, NSC-302979, or curcumin, 60 μM PGB1, 60 μM NSC-156236, or 60 μM DPTP for 12 h, 37° C. Cell lysates from each treatment were incubated with Ub-PEST, as described in materials and methods. Samples were fractionated by SDS-PAGE and proteins detected with ubiquitin epitopes immunochemically (HCT 116 ^+/+ western blot shown as example of raw data). […] B) Inhibition of isopeptidase activity by test panel compounds. Isopeptidase activity was determined by measuring via densitometry, the amount of Ub generated by isopeptidase cleavage of Ub-PEST. Bar graph patterns are DMSO vehicle (black), Δ12-PGJ2 (hatched), DBA (horizontal lines), NSC-302979 (white), PGB1 (diagonally downward right lines), and NSC-156236 (diagonally downward left lines). The amount of Ub generated in the vehicle treated sample (panel A, lane 2) is arbitrarily designated 100%.
Cellular isopeptidase enzymatic activity was measured with two assays that used different substrates. In one assay ubiquitin-PEST (Ub-PEST) was used, a full-length ubiquitin molecule with an 18 amino acid c-terminal peptide extension (total mass=10.5 kDa). Ubiquitin isopeptidases specifically cleave the 18 amino acid peptide extension, releasing full-length ubiquitin (8.5 kDa).
Briefly, 6×10^5 cells were incubated with 0-60 μM of test compounds for 12 hrs. Cells were lysed in 50 μL of 25 mM HEPES, 5 mM EDTA, 0.1% CHAPS, 5 mM ATP, pH 7.5. The protein concentration of each sample was adjusted to 0.3 mg/mL and incubated with 50 μg/mL Ub-PEST for 45 minutes at 25° C. Under these conditions, Ub-PEST hydrolysis occurs at a linear rate. 20 μL samples were mixed with 20 μL 2× Laemmli buffer, boiled briefly, and fractionated by SDSPAGE. Isopeptidase activity was monitored by determining the amount of product (8.5 kDa ubiquitin) formation.

ubiquitin isopeptidases [2] = assay: Ubiquitin isopeptidase activity, z-LRGG-AMC substrate, lysates of treated RKO and HCT 116 cells; assay type: cell-based, human; conditions: cells treated 6, 20 or 60 μM, 12 h
Protocol: RKO (upper) and HCT 116 ^+/+ cells (lower) were treated with DMSO vehicle, 6, 20, or 60 μM of Δ12-PGJ2, DBA, NSC-302979, or curcumin, 60 μM PGB1, 60 μM NSC-156236, or 60 μM DPTP for 12 h at 37° C. Cell lysates (0.5 mg/mL) from each treatment were incubated with the isopeptidase substrate, z-LRGG-AMC, for 3 h, 37° C. The amount of AMC cleaved by isopeptidase was determined fluorometrically, as described in Materials and Methods.
The second assay used a fluorescent tetrapeptide, z-LRGG-AMC, as a substrate that mimics the carboxy-terminus of ubiquitin. Isopeptidase activity hydrolyzes the bond between the c-terminal glycine and the fluorophore. This tetrapeptide also undergoes slow proteolysis by the catalytic subunit of the proteasome. To minimize this background rate of proteolysis cell lysates were incubated with 30 μM MG115 for 30 minutes at 4° C., prior to substrate incubation (>90% proteasome inhibition). Cells were teeated as above, lysed in 250 μL of lysis buffer per sample, and adjusted protein concentration to 0.5 mg/mL prior to incubation with MG115. Next, z-LRGG-AMC substrate was added and fluorescence was quantified of the AMC moiety cleaved by isopeptidase action.

[3] = system: polyubiquitin conjugates in RKO-E6 cells; assay: Accumulation of polyubiquitin in RKO-E6 cells (immunoblot); assay type: cell-based, human; conditions: EC80 or 60 μM, 6-24 h
Protocol: (§1) A) Accumulation of polyubiquitin. RKO-E6 cells were treated with DMSO vehicle for 24 h, 37° C., or with the concentrations of test compounds that gave 80% cell death (as determined by cell viability assay at 48 h) for 6, 12, or 24 h, 37° C. […] Schematic depicting p53 degradation via the proteasome pathway in RKO cells versus RKO-E6 cells. The activity of the HPV E6 oncoprotein hastens p53 degradation in RKO-E6 cells. ii. RKO and RKO-E6 cells were treated with vehicle, etoposide (50 μM), MG115 (20 μM), Δ12-PGJ2 (60 μM), NSC-302979 (20 μM, DBA (20 μM), curcumin (60 μM), PGB1 (60 μM), NSC-156236, (60 XM)or DPTP 60 μM for 6 h, 37° C. Lysates were fractionated by SDS-PAGE and their p53 content determined immunochemically. iii. p53 levels were measured by densitometry and the ratio of p53 protein in RKO-E6 cells/RKO cells calculated.
(§2) The medium was removed and cells lysed in 50 mM Tris, pH 7.4, 100 mM NaCl, 2 mM EDTA with 0.1% SDS, 0.1% deoxycholate, 1× complete protease inhibitor mixture. Protein concentration was measured by the Bradford method. Equal portions of the total cell lysate were fractionated from each sample (12.5 μg of protein) by SDS-PAGE. Proteins were transferred to poly(vinylidene difluoride) blocked with 5% (w/v) nonfat dry milk in Trisbuffered saline [20 mM Tris-HCl, pH 7.5, 100 mM sodium chloride, 0.1% (v/v) Tween 20]. Proteins were detected immunochemically by using primary antibodies directed against p53 (1:4000) or ubiquitin (1:1000), followed by horseradish peroxidase-conjugated secondary antibodies (1:4000). Antigen-antibody complexes were detected with enhanced chemiluminescence reagents. Gels were scanned and quantified intensities using Kodak 1D Image Analysis Software.

p53 = p53 accumulation, ratio RKO-E6 cells/RKO cells (immunoblot, densitometry); assay type: cell-based, human; conditions: 6 h; etoposide 50 μM, MG115, NSC-302979, DBA 20 μM, others 60 μM
Protocol: as §1, §2

RKO cells = assay: MTT cell viability assay, RKO cells; conditions: 48 h; for cell death in RKO compared with RKO-E6 cells: MTT, isogenic pair; for EC50: Homo sapiens, RKO, read-out: Cytotoxic Potency (EC50) RKO
Protocol: (§6) Cell viability was measured with MTT reagent as described in materials and methods.
(§7) Cell viability was detected by the MTT assay. Briefly, 1×10^5 cells were incubated per well of a sterile, 96-well assay plate with 0-60 μM of test compounds for 48 hours. MTT reagent was added to each well, final concentration of 0.5 mg/mL, and incubated for an additional 3 hours. The media was aspirated and remaining MTT reagent from each well and added 100 μL of HCl:isopropanol (1:24). The absorbance of each sample was measured at 405 nm.

RKO-E6 cells = assay: MTT cell viability assay, RKO-E6 cells; conditions: for EC50: Homo sapiens, RKOE6, 48 h, read-out: Cytotoxic Potency (EC50) RKO-E6
Protocol: as §6, §7

HCT 116 +/+ cells = assay: MTT cell viability assay, HCT 116 p53 +/+ cells; conditions: for cell death in HCT 116 +/+ compared with HCT 116 −/− cells: 48 h, MTT, isogenic pair; for EC50: Homo sapiens, HCT-116, 48 h, read-out: Cytotoxic Potency (EC50) HCT +/+
HCT 116 −/− cells = assay: MTT cell viability assay, HCT 116 p53 −/− cells; conditions: Homo sapiens, HCT-116, 48 h, read-out: Cytotoxic Potency (EC50) HCT −/−
Protocol: as §6, §7

HCT 116 (p53 wt) = assay: MTS cytotoxicity, HCT 116 (p53 wt); assay type: cell-based; conditions: Homo sapiens, 48 h
Excerpt: (§3) Cytotoxicity in Human Colon Tumor (HCT) Cell Lines. To determine if punaglandins elicit cytotoxicity independently of the tumor-suppressor p53, as do other dienone prostaglandins, several cytotoxicity assays were employed. First, cell death effects of all isolated punaglandins were investigated in pairs of isogenic colon cancer cell lines, the HCT 116^+/+ competent cell line and HCT 116^−/− null cell lines. HCT 116^+/+ cells are homozygous for p53^+/+ and p21^+/+; where as, HCT 116^−/− cells lack both alleles for p53 (p53^−/−) or p21 (p21^−/−).
(§4) Each cell line was seeded simultaneously in 96-well plates and incubated for 24 h before treatment with individual punaglandins at various concentrations for 48 additional h. Cytotoxicity was determined using MTS and absorbances were recorded at 490 nm. Half maximal effective concentrations (EC50) and Log EC50s were calculated from a concentration-response curve generated using GraphPad Prism (Table 1).

HCT 116 (p53^−/−) = assay: MTS cytotoxicity, HCT 116 (p53−/−); assay type: cell-based; conditions: Homo sapiens, log of EC50 in μM, 48 h, read-out: Log EC50 +/− Standard Error of Log EC50, HCT 116 (p53−/−) (converted)
Excerpt: as §3, §4

HCT 116 (p21 wt) = assay: MTS cytotoxicity, HCT 116 (p21 wt); assay type: cell-based; conditions: Homo sapiens, log of EC50 in μM, 48 h, read-out: Log EC50 +/− Standard Error of Log EC50, HCT 116 (p21 wt) (converted)
Excerpt: as §3, §4

HCT 116 (p21^−/−) = assay: MTS cytotoxicity, HCT 116 (p21−/−); assay type: cell-based; conditions: Homo sapiens, log of EC50 in μM, 48 h, read-out: Log EC50 +/− Standard Error of Log EC50, HCT 116 (p21−/−) (converted)
Excerpt: as §3, §4

ubiquitin isopeptidases [4] = assay: In vitro isopeptidase activity in HCT 116 lysates, Ub-PEST; assay type: biochemical, human; conditions: HCT 116 lysates, 45 min
Protocol: (§5) Isopeptidase Assay. It was hypothesized that the punaglandins would inhibit ubiquitin-isopeptidase activity of the proteasome pathway as does the prostaglandin, Δ^12-PGJ2 (1), but with greater potency because of the chlorinated C-10. To validate this theory, cellular isopeptidase enzymatic activity was measured in vitro after treatment with individual punaglandins, PNG 2 (6), PNG 3 (7), and Z-PNG 4 (9) and in vivo after individual treatment with PNG 4 (8) and PNG 6 (10). This activity was determined utilizing the simple isopeptidase substrate, ubiquitin-PEST (Ub-PEST), a full/length ubiquitin (Ub) molecule fused with an 18-amino acid C-terminal peptide extension that most isopeptidases use as a substrate. The polypeptide extension contains regions rich in Pro (P), Glu (E), Ser (S), and Thr (T) residues called PEST motifs that are responsible for rapid degradation of these and other unstable proteins. Ub isopeptidases specifically cleave this peptide extension, yielding free, full-length Ub. Both the fused Ub-PEST (10.5 kDa) and the cleaved, free Ub (8.5 kDa) can be observed via immunochemical detection.
In Vitro Isopeptidase Activity. PNG 2 (6), PNG 3 (7), and Z-PNG 4 (9) were initially analyzed for isopeptidase activity in vitro in HCT 116 lysates. Cells were lysed with isopeptidase activity buffer and protein concentration adjusted to 0.3 mg/mL per sample. Each sample was subsequently incubated with 2 μM, 6 μM, 20 μM, 60 μM, or 200 μM of PNG 2 (6), PNG 3 (7), Z-PNG 4 (9), Δ^12-PGJ2 (1), and PGA1 (2) in addition to 50 μg/ml of Ub-PEST. Negative control cells were treated with vehicle (0.5% DMSO) and equivalent Ub-PEST. […] The amount of fused Ub-PEST and free Ub product was determined by SDS-PAGE fractionation.

ubiquitin isopeptidases [5] = assay: In vivo isopeptidase activity after treatment of RKO cells, Ub-PEST; assay type: cell-based, human; conditions: 6 h
Protocol: as §5
In vivo Isopeptidase Activity. To investigate whether punaglandins can inhibit isopeptidase activity in vivo, isopeptidase activity was analyzed after punaglandin treatment of RKO cells. PNG 4 (8) and PNG 6 (10) were selected for in vivo investigation because they differ only in enone functionality, where (8) is a dienone and (10) an enone. RKO cells were incubated with 1 μM, 4 μM, or 7 μM of PNG 4 (8) and PNG 6 (10). […] As a positive control, cells were treated with a known isopeptidase inhibitor, shikoccin (SK). After 6 h drug treatment, cells were lysed and protein concentration adjusted to 0.3 mg/mL per sample. Each sample was subsequently incubated with 50 μg/mL of Ub-PEST. The reaction was terminated after 20 min and the respective amounts of Ub-PEST (10 kDa) and free Ub product (8.5 kDa) were determined by SDS-PAGE fractionation.

[6] = log of EC50 in μM, read-out: Log EC50 +/− Standard Error of Log EC50, HCT 116 (p53 wt) (converted)

| SMILES | inhibition of isopeptidase cleavage of Ub-PEST (ubiquitin isopeptidases [1]) | inhibition of z-LRGG-AMC hydrolysis by ubiquitin isopeptidases (ubiquitin isopeptidases [2]) | cellular accumulation of polyubiquitin conjugates [3] | ratio of p53 protein [RKO-E6 cells/RKO cells] (p53) | cell death in RKO compared with RKO-E6 cells (RKO cells) | EC50 (RKO cells) [nM] | EC50 (RKO-E6 cells) [nM] | cell death in HCT 116 +/+ compared with HCT 116 −/− cells (HCT 116 +/+ cells) | EC50 (HCT 116 +/+ cells) [nM] | EC50 (HCT 116 −/− cells) [nM] | EC50 (HCT 116 (p53 wt); [6]) [µM] | EC50 (HCT 116 (p53^−/−)) [µM] | EC50 (HCT 116 (p21 wt)) [µM] | EC50 (HCT 116 (p21^−/−)) [µM] | also measured |
| --- | --- | --- | --- | --- | --- | --- | --- | --- | --- | --- | --- | --- | --- | --- | --- |
| O=C(C=Cc1ccccc1)C=Cc1ccccc1 [DBA, dibenzylideneacetone] | inhibited isopeptidase activity in a concentration dependent manner | inhibited ubiquitin isopeptidase activity | protein species with polyubiquitin conjugation accumulated in cells | approached unity | caused cell death with equal potency and efficacy | 7000 ± 600 | 6500 ± 1100 | caused cell death with equal potency | 3200 ± 100 | 3800 ± 100 | – | – | – | – | EC80, concentration that gave 80% cell death (RKO-E6 cells; cell viability assay at 48 h, RKO-E6 cells): 12000 nM |
| O=c1cc(-c2ccccc2)sc(-c2ccccc2)c1 [DPTP, 2,6-Diphenyl-4H-thiopyran-4-one] | did not inhibit isopeptidase activity | did not | did not cause appreciable cellular accumulation of ubiquitin conjugates | significantly less than unity | did not cause significant cell death | > 60000 | > 60000 | did not cause significant cell death | > 60000 | > 60000 | – | – | – | – | – |
| CCCCC/C=C\C[C@@]1(O)C=C(Cl)C(=O)[C@@H]1[C@@H](OC(C)=O)[C@H](OC(C)=O)[C@H](CCCC(=O)OC)OC(C)=O [PNG 2] | – | – | – | – | – | – | – | – | – | – | 0.0398 | 0.0398 | 0.0468 | 0.0398 | – |
| CC/C=C\C/C=C\C[C@@]1(O)C=C(Cl)C(=O)/C1=C/[C@H](OC(C)=O)[C@H](CCCC(=O)OC)OC(C)=O [PNG 3] | – | – | – | – | – | – | – | – | – | – | 0.324 | 0.372 | 0.288 | 0.295 | concentration at which inhibition of Ub-PEST degradation is initially observed (ubiquitin isopeptidases [4]): 20 µM; concentration of complete (total) inhibition of Ub-PEST degradation (ubiquitin isopeptidases [4]): 60 µM; EC50 (HCT 116 (p53 wt); average over the three compounds, read-out: average EC50 of PNG 3, PNG 4 and PNG 6, cytotoxicity in HCT 116 cell lines): ~0.35 µM |
| C[C@@H]1C[C@@H]([C@H](O)CC2CC(=O)NC(=O)C2)C(=O)[C@@H](C)C1 [cycloheximide] | – | – | – | – | – | – | – | – | – | – | – | – | – | – | effect on Ub-PEST degradation, control substances (ubiquitin isopeptidases [5]): 1:1 ratio of Ub-PEST to free Ub |
